Columns and labels:
Jurkat [1] = test: Compound was assessed for NF-kB activity using human T cell leukemia Jurkat cells; Less toxic; type: functional, cell-based
Mus musculus = organism: Mus musculus; test: Compound was tested for antiarthritic effects on type-II collagen induced arthritis in DBA1/J mice; inhibited; type: functional, organism-based
Jurkat [2] = test: Compound was assessed for NF-kB activity using human T cell leukemia Jurkat cells; more toxic; type: functional, cell-based

With O=C(NC1=CC(=O)[C@H]2O[C@H]2[C@H]1O)c1ccccc1O the Activity (Jurkat [1]) was “Toxic” and the Activity (Mus musculus) was “Inhibited”.

For O=C(NC1=CC(O)C2OC2C1=O)c1ccccc1O (stereo not drawn), the Activity (Jurkat [2]) was “Toxic”.

From ChEMBL document CHEMBL1133347, “Synthesis of NF-kappaB activation inhibitors derived from epoxyquinomicin C” (Bioorg Med Chem Lett, 2000)
